According to patent publication US20130274174A1, “THERAPEUTIC COMBINATION OF DAPTOMYCIN AND PROTEIN SYNTHESIS INHIBITOR ANTIBIOTIC, AND METHODS OF USE” (priority 2011, published 2013):
In brackets after ≈: the same amount, converted by molar mass. Where two headings read alike, the source gives them in different places.

Tested on: S. aureus MW2 (NRS123)
Test: microbe, parasite or virus in culture
Type: cell-based, Staphylococcus aureus
Conditions: Staphylococcus aureus
Method: S. aureus strains MW2 (NARSA collection clinical MRSA isolate, NRS123) and ATCC 33591 (MRSA strain from the American Type Culture Collection) were cultured on Mueller-Hinton II cation adjusted (MHA) medium in 90×90 mm square petri dishes. MHA containing ¼ of the MIC value of TR-700, TR-705, LZD, TIA, CLI, TET, or VAN, TMP/SMX throughout the plate and a continuous linear gradient of DAP across the plate was used to passage MW2. ATCC 33591 was passaged with ¼ of the MIC of a subset of these drugs (TR-700, TMP/SMX, and VAN). A DAP-only control passage group was included for both strains. DAP gradients were created by pouring two layers of media as previously described (Bryson, V., et al. 1952. Microbial selection. Science 116:45-51; Locke, J. B., et al., 2009. Antimicrob. Agents Chemother. 53:5265-5274). Following each passage the leading edge of growth (i.e., most resistant cells) was resuspended in phosphate buffered saline (PBS) to an absorbance of 0.30 OD600 and a 100 μl aliquot containing ˜3.0×10^7 CFU (colony-forming units) was spread on to the proceeding passage plate. The starting maximal DAP concentration was 2 μg/ml and was increased in two-fold increments when the leading edge of growth surpassed the half way point on the plate. A glycerol stock was made from the total cell population for each culture condition for each passage. Thirty serial passages were completed for each treatment group.

CN(C)[C@@H]1C(O)=C(C(N)=O)C(=O)[C@@]2(O)C(O)=C3C(=O)c4c(O)cccc4[C@@](C)(O)[C@H]3C[C@@H]12 [TET, tetracycline]
MIC (NRS123, passage 0, NRS123 WT): 0.5 µg/mL (≈ 1.13 µM)
MIC (NRS123, passage 5, selection group DAP): 0.25 µg/mL (≈ 0.563 µM)
MIC (NRS123, passage 5, selection group DAP + CLI): 0.5 µg/mL
MIC (NRS123, passage 5, selection group DAP + LZD): 0.5 µg/mL
MIC (NRS123, passage 5, selection group DAP + TET): 0.25 µg/mL
MIC (NRS123, passage 5, selection group DAP + TIA): 0.5 µg/mL
MIC (NRS123, passage 5, selection group DAP + TMP/SMX): 0.125 µg/mL
MIC (NRS123, passage 5, selection group DAP + TR-700): 0.5 µg/mL
MIC (NRS123, passage 5, selection group DAP + TR-705): 0.5 µg/mL
MIC (NRS123, passage 5, selection group DAP + VAN): 0.25 µg/mL
MIC (NRS123, passage 10, selection group DAP): 0.125 µg/mL (≈ 0.281 µM)
MIC (NRS123, passage 10, selection group DAP + CLI): 0.5 µg/mL
MIC (NRS123, passage 10, selection group DAP + LZD): 0.25 µg/mL
MIC (NRS123, passage 10, selection group DAP + TET): 0.5 µg/mL
MIC (NRS123, passage 10, selection group DAP + TIA): 0.25 µg/mL
MIC (NRS123, passage 10, selection group DAP + TMP/SMX): 0.5 µg/mL
MIC (NRS123, passage 10, selection group DAP + TR-700): 0.5 µg/mL
MIC (NRS123, passage 10, selection group DAP + TR-705): 0.125 µg/mL
MIC (NRS123, passage 10, selection group DAP + VAN): 0.25 µg/mL
MIC (NRS123, passage 15, selection group DAP): 0.25 µg/mL (≈ 0.563 µM)
MIC (NRS123, passage 15, selection group DAP + CLI): 0.125 µg/mL
MIC (NRS123, passage 15, selection group DAP + LZD): 0.25 µg/mL
MIC (NRS123, passage 15, selection group DAP + TET): 0.5 µg/mL
MIC (NRS123, passage 15, selection group DAP + TIA): 0.25 µg/mL
MIC (NRS123, passage 15, selection group DAP + TMP/SMX): 0.25 µg/mL
MIC (NRS123, passage 15, selection group DAP + TR-700): 0.25 µg/mL
MIC (NRS123, passage 15, selection group DAP + TR-705): 0.25 µg/mL
MIC (NRS123, passage 15, selection group DAP + VAN): 0.25 µg/mL
MIC (NRS123, passage 20, selection group DAP): 0.125 µg/mL (≈ 0.281 µM)
MIC (NRS123, passage 20, selection group DAP + CLI): 0.125 µg/mL
MIC (NRS123, passage 20, selection group DAP + LZD): 0.25 µg/mL
MIC (NRS123, passage 20, selection group DAP + TET): 0.25 µg/mL
MIC (NRS123, passage 20, selection group DAP + TIA): 0.25 µg/mL
MIC (NRS123, passage 20, selection group DAP + TMP/SMX): 0.25 µg/mL
MIC (NRS123, passage 20, selection group DAP + TR-700): 0.25 µg/mL
MIC (NRS123, passage 20, selection group DAP + TR-705): 0.125 µg/mL
MIC (NRS123, passage 20, selection group DAP + VAN): 0.25 µg/mL
MIC (NRS123, passage 25, selection group DAP): 0.125 µg/mL (≈ 0.281 µM)
MIC (NRS123, passage 25, selection group DAP + CLI): 0.125 µg/mL
MIC (NRS123, passage 25, selection group DAP + LZD): 0.25 µg/mL
MIC (NRS123, passage 25, selection group DAP + TET): 0.25 µg/mL
MIC (NRS123, passage 25, selection group DAP + TIA): 0.25 µg/mL
MIC (NRS123, passage 25, selection group DAP + TMP/SMX): 0.25 µg/mL
MIC (NRS123, passage 25, selection group DAP + TR-700): 0.25 µg/mL
MIC (NRS123, passage 25, selection group DAP + TR-705): 0.125 µg/mL
MIC (NRS123, passage 25, selection group DAP + VAN): 0.25 µg/mL
MIC (NRS123, passage 30, selection group DAP): 0.25 µg/mL (≈ 0.563 µM)
MIC (NRS123, passage 30, selection group DAP + CLI): 0.25 µg/mL
MIC (NRS123, passage 30, selection group DAP + LZD): 0.25 µg/mL
MIC (NRS123, passage 30, selection group DAP + TET): 0.5 µg/mL
MIC (NRS123, passage 30, selection group DAP + TIA): 0.5 µg/mL
MIC (NRS123, passage 30, selection group DAP + TMP/SMX): 0.5 µg/mL
MIC (NRS123, passage 30, selection group DAP + TR-700): 0.5 µg/mL
MIC (NRS123, passage 30, selection group DAP + TR-705): 0.25 µg/mL
MIC (NRS123, passage 30, selection group DAP + VAN): 0.5 µg/mL
MIC (NRS123, read-out: DAP MIC by the end of the experiment (selection of DAP^ns strains), MW2, passaged with DAP alone or with co-selecting agent at ¼ MIC, CLSI breakpoint): > 1 µg/mL
